Source: US20260137701A1, “CHOLESTENOIC ACID (CA) AND A SULFATED DERIVATIVE THEREOF, 3[BETA]-SULFATE-5-CHOLESTENOIC ACID (CA3S), AS ENDOGENOUS EPIGENETIC REGULATORS” (priority 2022, published 2026)

System: HepG-2 cells
Assay: mRNA sequencing, differential expression genes
Format: cell-based, human
Protocol: After culturing HepG-2 cells in DMEM medium with HG for 72 hours followed by treating with 20 μM CA for 0, 3, 6, 12, and 24 hours, genomic DNA from 5×10^7 cells were extracted using QIAamp® DNA Mini Kit (QIAGEN, Hilden, Germany). Each sample, 6 μg, was sent to CD Genomics Co., Ltd (New York, USA) for analysis of WGBS. Total RNA was isolated using the Promega SV total RNA isolation system (Madison, WI, USA) with DNase treatment. Each sample, 2 μg, were sent to CD Genomics Co., Ltd (New York, USA) for analysis of RNA sequencing. The same samples, 2 μg, was used for the first-strand cDNA synthesis as recommended by the manufacturer (Invitrogen, Carlsbad, CA). RT-qPCR was performed using SYBR Green as the indicator on ABI 7500 Fast Real-Time PCR System (Applied Biosystems, Foster City, CA). Amplifications of j-actin or GAPDH were used as internal controls. Relative messenger RNA (mRNA) expression was quantified with the comparative cycle threshold (Ct) method using a sutiable primer set and was expressed as 2-ΔΔCt as described previously.
Total RNA was extracted and purified from HepG-2 cells using SV total RNA isolation system (Promega, Madison, WI). Messenger RNA was purified from total RNA using poly-T oligo-attached magnetic beads. After fragmentation, the first strand cDNA was synthesized using random hexamer primers, followed by the second strand cDNA synthesis using either dUTP for directional library or dTTP for non-directional library. The library was checked with Qubit and real-time PCR for quantification and bioanalyzer for size distribution detection. Quantified libraries will be pooled and sequenced on Illumina® platforms, according to effective library concentration and data amount. Raw data (raw reads) of fastq format were first processed through in-house perl scripts. In this step, clean data (clean reads) were obtained by removing reads containing adapter, reads containing ploy-N and low-quality reads from raw data. At the same time, Q20, Q30 and GC content of the clean data were calculated. All the downstream analyses were based on clean data with high quality. The clean data were aligned to reference genome (GRCh37) using Hisat2 v2.0.5 software. Differential expression genes (DEGs) were performed using the DESeq2 R package (1.20.0). DAVID software (website located at david.ncifcrf.gov/) was used to test the statistical enrichment of DMR related genes in the GO and KEGG pathways.

## CC(CCC[C@@H](C)[C@H]1CC[C@H]2[C@@H]3CC=C4C[C@@H](O)CC[C@]4(C)[C@H]3CC[C@]12C)C(=O)O (stereo partly drawn) [CA, 3β-hydroxy-5-cholestenoic acid]
20 μM CA, 6 hours
  Fold Change NEU4 (down regulated gene): −1.99 fold
  Fold Change NOP9 (down regulated gene): −2.89 fold
  Fold Change NPIPA2 (up regulated gene): 1.32 fold
  Fold Change NUP160 (down regulated gene): −1.36 fold
  Fold Change PAK1 (down regulated gene): −1.14 fold
  Fold Change PAK1IP1 (down regulated gene): −3.71 fold
  Fold Change PALLD (up regulated gene): 1.02 fold
  Fold Change PCSK9 (down regulated gene): −1.08 fold
  Fold Change PFKFB4 (down regulated gene): −1.30 fold
  Fold Change PHF1 (up regulated gene): 1.42 fold
  Fold Change PNPLA3 (down regulated gene): −1.42 fold
  Fold Change POLR3E (down regulated gene): −1.12 fold
  Fold Change PRPF31 (up regulated gene): 1.38 fold
  Fold Change PRSS8 (down regulated gene): −1.46 fold
  Fold Change PSMB3 (down regulated gene): −4.67 fold
  Fold Change PSME2 (up regulated gene): 2.33 fold
  Fold Change PTEN (down regulated gene): −1.64 fold
  Fold Change PTGDR2 (up regulated gene): 1.58 fold
  Fold Change PUF60 (down regulated gene): −2.01 fold
  Fold Change RBFOX2 (down regulated gene): −1.14 fold
  Fold Change RCBTB2 (up regulated gene): 1.18 fold
  Fold Change RDH11 (down regulated gene): −1.06 fold
  Fold Change RN7SK (down regulated gene): −1.58 fold
  Fold Change RNF187 (up regulated gene): 1.25 fold
  Fold Change RPS9 (down regulated gene): −1.14 fold
  Fold Change RPS14P1 (up regulated gene): 1.50 fold
  Fold Change RPS17 (up regulated gene): 3.79 fold
  Fold Change RRN3 (down regulated gene): −1.05 fold
  Fold Change RUSC1-AS1 (down regulated gene): −1.37 fold
  Fold Change SBNO2 (up regulated gene): 1.13 fold
  Fold Change SERTAD1 (up regulated gene): 1.06 fold
  Fold Change SGK1 (up regulated gene): 1.03 fold
  Fold Change SLC39A7 (up regulated gene): 2.59 fold
  Fold Change SLC39A10 (down regulated gene): −1.10 fold
  Fold Change SNHG32 (down regulated gene): −1.62 fold
  Fold Change SPC25 (down regulated gene): −1.51 fold
  Fold Change SPSB2 (up regulated gene): 1.18 fold
  Fold Change SQLE (down regulated gene): −1.73 fold
  Fold Change SQSTM1 (down regulated gene): −1.29 fold
  Fold Change STARD4 (down regulated gene): −1.26 fold
  Fold Change STAT5A (up regulated gene): 1.09 fold
  Fold Change SYBU (up regulated gene): 1.09 fold
  Fold Change SYNPO (up regulated gene): 1.14 fold
  Fold Change TBCE (down regulated gene): −1.67 fold
  Fold Change TINF2 (down regulated gene): −1.58 fold
  Fold Change TJP1 (up regulated gene): 1.02 fold
  Fold Change TPM1-AS (up regulated gene): 1.08 fold
  Fold Change TRNH (down regulated gene): −1.08 fold
  Fold Change U2AF1 (up regulated gene): 1.40 fold
  Fold Change UGT2A3 (up regulated gene): 1.83 fold
  Fold Change VARS1 (up regulated gene): 3.03 fold
  Fold Change VPS11 (up regulated gene): 1.96 fold
  Fold Change YWHAE (down regulated gene): −1.84 fold
3 hours post treatment
  number of DEGs regulated by CA, total: 109
  number of DEGs, down-regulated: 50
  number of DEGs, up-regulated: 59
6 hours
  number of DEGs regulated by CA, total: 120
  number of DEGs, down-regulated: 61
  number of DEGs, up-regulated: 59
12 hours
  number of DEGs regulated by CA, total: 164
  number of DEGs, down-regulated: 80
  number of DEGs, up-regulated: 84
24 hours
  number of DEGs regulated by CA, total: 245
  number of DEGs, down-regulated: 112
  number of DEGs, up-regulated: 133
